Data: patent US20050288347A1, “Certain triazole-based compounds, compositions, and uses thereof” (priority 2004, published 2005)
“Also recorded” adds a separate entry of the source.

Biological target: protein kinase
Experiment: HTS ATP-utilizing enzyme assay, off-chip mobility-shift format (Caliper HTS 250)
Type: biochemical, human
Conditions: test compound 10 μM; for Kinase: kinase(s) for which the compound exhibits protein kinase inhibitory activity, active = greater than three-sigma from the mean activity of inactive compounds; for protein kinase against which the compound exhibits inhibitory activity (Table 3): active = activity greater than three-sigma from the mean of the predominately inactive population for that enzyme
Outline: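 Single-point screen at 10 μM compound in HEPES pH 7.5 buffer with Triton X-100 and BSA, 2.5 h at 20–22 °C. Substrate-to-phosphopeptide ratio measured by off-chip microfluidic mobility shift; EDTA wells as 100% and DMSO wells as 0% control, hits called at three-sigma limits.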

Row | SMILES | Kinase | protein kinase against which the compound exhibits inhibitory activity (Table 3)
1 | Clc1ccc(Cn2c(CCC3CCCC3)nnc2SCc2ccccc2)cc1Cl | – | GSK3-β; also recorded: AURORA-A; also recorded: c-TAK1
2 | CCn1c(SCC(=O)N2CCCc3ccccc32)nnc1-c1cc2ccccc2cc1O | CDK2-cyclinA; also recorded: AURORA-A; also recorded: DAPK1 | –
3 | CCOc1ccc(NCc2nnc(SCCN3CCOCC3)n2-c2ccccc2)cc1 | – | FYN
4 | O=C(CSc1nnc(Cc2ccccc2)n1C1CCCCC1)Nc1cccc(O)c1 | AURORA-A | –
5 | Cc1ccc(NCc2nnc(SCC(=O)Nc3cccc(O)c3)n2Cc2ccco2)c(C)c1 | CHEK2 | –

More lines, main results first:

Row | Kinase | SMILES | protein kinase against which the compound exhibits inhibitory activity (Table 3)
6 | AURORA-A | Cc1ccc(-n2c(SCC(=O)O)nnc2-c2cccnc2)cc1 [2-(5-(pyridin-3-yl)-4-p-tolyl-4H-1,2,4-triazol-3-ylthio)acetic acid] | –
7 | SYK and PRAK | CNC(=O)CSc1nnc(-c2ccc(OC)cc2)n1-c1ccccc1 | –
8 | CHEK2 | COc1ccc(-n2c(CNc3ccccc3Cl)nnc2SCC(=O)Nc2cccc(C(C)=O)c2)cc1 | –
